Results published in patent US20200155478A1, “XIBORNOL FOR USE IN THE TREATMENT OF ACNE VULGARIS” (ABIOGEN PHARMA S.P.A., priority 2017, published 2020).
Converted amounts (≈) assume the structure as drawn.

How the values were obtained:
[1] = test system: inflammatory cytokine IL-8; assay: Mouse model for Acne vulgaris induced by Propionibacterium acnes, IL-8 ELISA in ear homogenate supernatants; format: in vivo, Balb/c strain mice
Procedure: For the experiment, female Balb/c strain mice were used, grouped according to the experimental plan shown below in Table 5: [table] The sham group consisted of mice which received an intradermal injection, in each ear, of 25 μl of D-PBS (Dulbecco's phosphate buffered saline), while the other two groups consisted of mice which received an intradermal injection, in each ear, of 25 μl of D-PBS containing 10^8 CFU (colony-forming units) of Propionibacterium acnes. As of the day following the injection: • the sham group of mice was not treated; • the control group was treated, once a day, for 7 consecutive days, directly to the sites of inoculation of the bacterium, with a topical application of the formulation without active principle, i.e. with the carrier, consisting of three parts of paraffin oil and two parts of filamentary vaseline; • the […], once a day, for 7 consecutive days, directly to the sites of inoculation of the bacterium), with a topical application of the formulation containing xibornol in a concentration of 0.1% (corresponding to 0.79 mg/mL) in the carrier, consisting of three parts of paraffin oil and two parts of filamentary vaseline. The mice were sacrificed 24 hours after the last topical application. […]

[2] = test system: RHE EPISKIN artificial epidermis; assay: Skin irritation and sensitisation test (OECD TG 404), MTT viability; format: cell-based, human; conditions: liquid formulations of xibornol, isopropanol and PBS buffer; 42' contact, assessed after 42 hours
Procedure: In order to establish the usable concentrations of xibornol in solution for the production of pharmaceutical forms intended for external topical use, a skin irritation and sensitisation test was carried out, according to standard OECD TG 404, method B.4, Annex V, Directive 67/548/EEC. A RHE EPISKIN artificial epidermis unit was used for the test. The kit consisted of 24 reconstructed epidermis units with a total area of 0.33 cm^2. Each unit consisted of a collagen matrix with a stratified, differentiated epidermis derived from human keratinocytes placed on top thereof. The substances to be tested were placed in contact (42′) with the epidermis and the effects assessed after 42 hours, incubating the units with MTT (3-(4,5-dimethylthiazol-2-yl)-2,5-diphenyltetrazolium bromide) which, under the experimental conditions, reduced to formazan upon contact with metabolically active cells, turning the coloured solution from yellow into blue. Since the obtained colour is directly proportional to the concentration of formazan, and therefore to the cell viability, after incubation with MTT for 3 hours, optical density readings were taken by using the spectrophotometer (DO 572-650 nm).

Propionibacterium acnes [3] = assay: Determination of the minimum inhibitory concentration (MIC), 96-well broth plate, OD 600 nm and PrestoBlue; format: cell-based
Procedure: (§1) Two strains of Propionibacterium acnes were used for this test: the Grerath strain (ATCC-11827) and the VPI 0389 strain (ATCC-6919).
(§2) Clostridial differential broth (CDB, liquid medium) and reinforced clostridial agar (RCA, solid medium) were used for the culture. Growth occurred under anaerobic conditions obtained in a 7.0 L GENBOX JAR.
(§3) The anaerobic conditions were obtained by activating the Anaerocult A preparation and the anaerobiosis control was assessed by using ANAEROTEST strips for microbiology.
(§4) The Propionibacterium acnes was incubated at 37° C. for 72 hours.
Propionibacterium acnes strains were reactivated from ATCC vials, rehydrated with CDB medium, and then seeded on RCA plates.
To cultivate Propionibacterium acnes in broth, isolated colonies were taken from culture plates and inoculated in the CBD medium.
After culturing, the concentration of bacterial cells was normalised using the McFarland 0.5 standard.
A 96-well plate was prepared in order to establish the minimum inhibitory concentration; the xibornol was dissolved in a 4% isopropanol solution in various concentrations, and the samples were prepared according to the experimental plan shown in the following table 1.
All the wells in rows D, E, F and the first three wells from the left in row H contained Propionibacterium acnes at the final concentration of 5×10^5 bacteria/mL.
Row G (wells 1, 2, 3) was the negative control and contained only the culture medium, without bacteria, xibornol, or isopropanol.
Row H (wells 1,2,3) was the positive control and contained the bacterial culture without xibornol or isopropanol.
Unmarked wells were empty.
The reading of the plate, after an incubation under anaerobic conditions at 37° C., was performed after 72 hours.
A first spectrophotometer reading was taken, including measurement of the OD (optical density) at 600 nm.
To highlight the presence or absence of bacterial growth on the plate described above, PrestoBlue was also used, which is a resazurin-based solution which uses the reducing power of cells to measure cell proliferation. Said solution is blue and turns into red upon contact with live bacterial cells.
After having incubated the plate with the PrestoBlue and read the fluorescence values by using a Victor 3 Wallac microplate reader, the data were confirmed.

[4] = Dissolution of xibornol in 4% isopropanol; format: physicochemical
Procedure: In order to perform the antimicrobial tests in aqueous solutions (broth and agar), said xibornol, a lipophilic molecule, was dissolved in a hydrophilic solvent, and more specifically in isopropanol.

Propionibacterium acnes [5] = assay: Determination of the minimum bactericidal concentration (MBC), inoculation on RCA plates; format: cell-based
Procedure: as §1, §2, §3, §4
To determine the minimum bactericidal concentration (MBC), 10 μl of solution was taken from each well on the above described plate and inoculated on RCA plates containing the same concentrations of xibornol in 4% isopropanol present in the wells of the plate.

- MIC (Propionibacterium acnes [3]; Cutibacterium acnes, ATCC 11827 / ATCC 6919, 72 h, strains ATCC-11827 and ATCC-6919, anaerobic, 37° C., 72 hours, xibornol racemate in 4% isopropanol): 4.69 to 9.37 µg/mL (≈ 18.1 to 36.3 µM)
- minimum inhibitory concentration (MIC) (Propionibacterium acnes [3]; strains ATCC-11827 and ATCC-6919, anaerobic, 37° C., 72 hours, xibornol racemate in 4% isopropanol): 9.37 µg/mL (≈ 36.3 µM)
- amount of xibornol dissolved by 4% isopropanol [4]: up to 1200 μg/mL
Compound: Cc1cc(O)c(C2CC3CCC2(C)C3(C)C)cc1C (racemic) [xibornol, 4,5-dimethyl-2-[1,7,7-trimethylbicyclo[2.2.1]heptan-2-yl]phenol]
- Average concentration of IL-8 ([1]; 0.1% xibornol (0.79 mg/mL) in paraffin oil/vaseline carrier, topical once a day for 7 days, ear homogenate supernatant): 190.61 pg/mL
- change in IL-8 levels with respect to the control group ([1]; 0.1% xibornol topical, once a day for 7 days): significant reduction
- concentration of xibornol administrable topically without irritation or sensitisation of the epidermis [2]: less than 5 mg/mL
- concentration of xibornol administrable topically without irritation or sensitisation of the epidermis, even more preferably [2]: less than 2.5 mg/mL
- antibacterial efficacy compared with clindamycin (Propionibacterium acnes [3]; Propionibacterium acnes): comparable to that of clindamycin
- bacterial growth in wells (Propionibacterium acnes [3]; xibornol at 4.69 μg/mL, 2.34 μg/mL, 1.17 μg/mL, 72 hours, PrestoBlue red colour): bacterial growth was observed
- minimum bactericidal concentration (MBC) (Propionibacterium acnes [5]; 10 μl from each well inoculated on RCA plates with the same xibornol concentrations in 4% isopropanol): 9.37 µg/mL (≈ 36.3 µM)
- MBC (Propionibacterium acnes [5]; Cutibacterium acnes, 10 μl from each well inoculated on RCA plates with the same xibornol concentrations in 4% isopropanol): 4.69 to 9.37 µg/mL (≈ 18.1 to 36.3 µM)
- growth on RCA plates (Propionibacterium acnes [5]; xibornol 4.69 μg/mL): massive growth, comparable to that of the positive control
